Laboratory results from PMC7725785, “TRIB3 promotes MYC-associated lymphoma development through suppression of UBE3B-mediated MYC degradation” (Nature Communications, 2020).

What was measured:
MYC protein = MYC protein level by immunoblotting in Jurkat and Raji cells; format: cell-based, human; conditions: 4 μM, result in words
Procedure: (§1) Co-IP experiments were performed as described previously. Briefly, cells were collected and lysed for 30 min on ice. Soluble lysates were incubated with the indicated antibodies at 4 °C overnight, followed by incubation with Protein A/G Plus-Agarose (Santa Cruz Biotechnology, TX, USA) at 4 °C for 2 h. Soluble lysates were incubated with the indicated Anti-Myc magnetic beads (Bimake.com, B26302), Anti-Flag Affinity Gel (Bimake.com, B23102) or Anti-HA Affinity Gel (Bimake.com, B23302) at 4 °C overnight. Immunocomplexes were separated from the beads and then boiled for 10 min. The precipitated proteins were subjected to SDS-PAGE and blotted with specific antibodies. For immunoblotting assays, proteins were extracted from cells, spleens, or lymphoma tissues using RIPA buffer (Cell Signaling Technology, MA, USA). A BCA Protein Assay Kit was used to determine protein concentrations. Protein extracts were separated by SDS-PAGE, transferred onto PVDF membranes, and subjected to immunoblot analysis. Western blot images were captured by a Tanon 5200 chemiluminescent imaging system (Tanon, Shanghai, Beijing). Human lymphoma and benign LN paraffin tissue microarrays were purchased from US Biomax (LM482a).

[1] = tested on: murine Myc^Eμ lymphoma cells in NSG mice; assay: Limiting dilution transplantation of BCL cells into NSG mice (survival of secondary recipients); format: in vivo, mouse; conditions: NSG mice injected i.p. with lymphoma cells from PCM4 (2 mg/kg) group versus PCON group, 70 days; result in words
Text: (§2) To evaluate the survival rate of secondary recipients, these mice were monitored for 70 days. For the evaluation of IHC staining and protein expression, three mice of each group were killed at the end of treatment, and the thymuses, spleens and LNs were collected for pathology detection, Co-IP, and western blot assays.

[2] = tested on: primary human DLBCL cells (T69); assay: Serial colony formation (P1, P2) in methylcellulose, primary human DLBCL cells (T69); format: cell-based; conditions: also Raji and Jurkat (Fig. 6o, Supplementary Fig. 7r, s), result in words
Text: (§3) Mouse and human lymphoma cells formed colonies upon serum culture (P1). Single colonies of lymphoma cells were dispersed in methylcellulose-based medium MethoCul^TM M3630 (StemCell, 03630) or MethoCult™SF H4536 (StemCell, 04536). A representative plate was then washed and cells were resuspended and replated. After an additional 14 days, colonies were counted (P2).

[3] = tested on: MYC transcriptional activity; assay: E-box luciferase reporter assay of MYC transcriptional activity in Raji cells; format: cell-based, human; conditions: 24 h after transfection, versus PCON, result in words
Procedure: Cells were seeded in 12-well plates and transfected with E-box-dependent luciferase reporters (Yeasen Inc.) using VigoFect (Vigorous Biotechnology Beijing, China). pTK-Renilla was used as an internal control. Luciferase activity was measured 20–24 h after transfection using the Dual-luciferase Reporter Assay System (Promega, USA).

MYC and MAX = assay: Duolink PLA of MYC and MAX colocalization in Raji cells; format: cell-based, human; conditions: PCM4-treated Raji cells, result in words
Procedure: A total of 1 × 10^6 cells were seeded overnight in a six-well plate. The next day, cells were collected, fixed in 4% paraformaldehyde solution, permeabilized with 0.5% Triton-X100, blocked with Duolink® Blocking Solution, and probed with antibodies directed against MYC (R&D, NB600-302, 1:100), TRIB3 (Novus, H00057761-M03, 1:100), UBE3B (Invitrogen, PA5-59390, 1:100), and MAX (Cell Signaling Technology, #4739, 1:100). The cells were then treated with the Duolink In Situ Red Starter Mouse/Rabbit kit (Sigma Aldrich, DUO92101-1KT) according to the manufacturer’s instructions. Images were captured with an OLYMPUS confocal microscope.

PTCL^T144 PDX = assay: PDX model tumor growth and weight, PTCL T144; format: in vivo, human; conditions: result in words
Procedure: (§4) Four 5-week-old male NSG mice were implanted subcutaneously with 200 μl of a 1:1 mixture of Matrigel® Basement Membrane Matrix High Concentration (Corning, 354230) and minced fresh tumor fragments resected from lymphoma patients. Approximately 3–4 weeks following implantation, the first-generation mice (G1) were killed, and tumor masses were isolated. The tumor cells were tested for human CD19 (BCL) or CD3 expression (T cell lymphoma), and the remaining tumor mass was cut into 3-mm^3 sections and passaged into 4–5 NSG mice as the second generation (G2). After stable passage of the third generation (G3), the tumor mass of the fourth generation (G4) was equally cut into 3-mm^3 pieces and then passaged subcutaneously into 30–50 NSG mice (100 μl of a 1:2 mixture of Matrigel and tumor tissue) for in vivo treatment (6–8 mice per group, dependent on the experimental drug treatment). During and after treatment with the vehicle control or the indicated agent, tumor burden was evaluated by measuring the tumor volume to determine the therapeutic efficacy in the PDX models. […]
(§5) To evaluate the survival rate, these mice were monitored for 8 months (Myc^Eμ mice). […] During the indicated treatments, tumor burden was evaluated by measuring the tumor volume to determine the therapeutic efficacy in the PDX models.

[4] = tested on: TRIB3-MYC interaction and MYC expression; assay: TRIB3/MYC Co-IP and MYC immunoblot in spleens and LNs of treated Myc^Eμ mice; format: in vivo, mouse; conditions: Myc^Eμ mice; result in words
Procedure: as §2
as §1, with “Western blot images were captured by a Tanon 5200 chemiluminescent imaging system (Tanon, Shanghai, Beijing). Human lymphoma and benign LN paraffin tissue microarrays were purchased from US Biomax (LM482a).” left out

TLBL^T123 PDX = assay: PDX model tumor growth and weight, T-LBL T123; format: in vivo, human; conditions: result in words
Procedure: as §4, §5

primary mouse BCL cells = assay: Serial colony formation of primary mouse BCL cells from Myc^Eμ mice; format: cell-based; conditions: result in words
Text: as §3

DLBCL^T169 PDX = assay: PDX model tumor growth and weight, DLBCL T169; format: in vivo, human; conditions: result in words
Procedure: as §4, §5

Myc^Eμ BCL mice = assay: Kaplan-Meier survival of Myc^Eμ BCL mice treated with DOX and peptide; format: in vivo, mouse; conditions: DOX 2 mg/kg i.p. once a week and PCM4 5 mg/kg i.v. three times a week, 3 months, result in words
Procedure: as §5

[5] = Serum ALT, AST, UREA and CRE (liver and renal function) in treated Myc^Eμ mice; conditions: UREA, CRE, result in words
Text: The serum alanine transaminase (ALT) and aspartate transaminase (AST) levels of MycEµ mice with the indicated
treatment were detected to evaluate liver function (n = 6 per group). Data are represented as means ± SEM. (b) Th e
serum UREA and creatinine (CRE) levels of MycEµ mice with the indicated treatment were detected to evaluate
renal function (n = 6 per group). Data are represented as means ± SEM.

## HLYVSPWGGKRREQLKHKLEQLR [PCM4]
MYC protein
  MYC abundance: reduced the MYC abundance
[1]
  survival rate of secondary recipients: better survival rate
[2]
  intrinsic clonogenicity of human lymphoma cells: reduced the intrinsic clonogenicity
[3]
  MYC transcriptional activity: reduced MYC transcriptional activity
MYC and MAX
  foci of MAX-MYC colocalization: reduced foci of MAX-MYC colocalization
PTCL^T144 PDX; PDX T144 (high TRIB3 and MYC expression), PCM4 5 mg/kg and DOX 2 mg/kg
  growth and weights of tumors, combination of PCM4 and DOX: further decreased the growth and weights of tumors
PTCL^T144 PDX; PDX T144, NSG mice, PCM4 5 mg/kg i.v. three times a week
  tumor growth of PDX: inhibited the tumor growth
[4]
  TRIB3-MYC interaction and MYC expression in the LNs and spleens: decrease in the TRIB3-MYC interaction and MYC expression
TLBL^T123 PDX; PDX T123 (high TRIB3 and MYC expression), PCM4 5 mg/kg and DOX 2 mg/kg
  growth and weights of tumors, combination of PCM4 and DOX: further decreased the growth and weights of tumors
TLBL^T123 PDX; PDX T123, NSG mice, PCM4 5 mg/kg i.v. three times a week
  tumor growth of PDX: inhibited the tumor growth
Primary mouse BCL cells
  intrinsic clonogenicity of primary mouse BCL cells: reduced the intrinsic clonogenicity
DLBCL^T169 PDX; PDX T169 (high TRIB3 and MYC expression), PCM4 5 mg/kg and DOX 2 mg/kg
  growth and weights of tumors, combination of PCM4 and DOX: further decreased the growth and weights of tumors
DLBCL^T169 PDX; PDX T169, NSG mice, PCM4 5 mg/kg i.v. three times a week
  tumor growth of PDX: inhibited the tumor growth
Myc^Eμ BCL mice
  therapeutic efficacy / survival rate in combination with DOX: enhanced the therapeutic efficacy of DOX
[5]
  toxic effects (renal/liver function assays): did not exert obvious toxic effects
